Experiment [1] addresses T1, mouse PDGF-β receptor tyrosine kinase (Mus musculus, UniProt P05622).
T1 construct: a fragment of DNA that codes for the intracellular tyrosine kinase domain; made in house; host or cells: Sf9 insect cells (baculovirus), cell lysate
The experiment can be described thus: PDGF receptor tyrosine kinase assay. The experiment is classed as biochemical. The note with it: for IC50: read-out: Inhibition of Protein Tyrosine Kinases, PDGF, IC50; for inhibition at 50 µM: read-out: Inhibition of Protein Tyrosine Kinases, PDGF, % Inhibition. Summed up: (§1)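 Intracellular kinase domains expressed in baculovirus-infected SF9 cells; crude lysate used as enzyme. Inhibitor preincubated 10 min at 25 °C with lysate in pH 7.0 Hepes buffer with 10 mM MnCl2 and poly(Glu-Tyr) 4:1, then γ-32P-ATP (50 μM ATP) added for 10 min at 25 °C. TCA-precipitated 32P on filters counted, no-enzyme background subtracted.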

The target of experiment [2] is T2, human FGF-1 (flg) receptor tyrosine kinase (Homo sapiens, UniProt P11362).
T2 construct: a fragment of DNA that codes for the intracellular tyrosine kinase domain; made in house; host or cells: Sf9 insect cells (baculovirus), cell lysate
T2 sequence (P11362 478-767 limits assumed): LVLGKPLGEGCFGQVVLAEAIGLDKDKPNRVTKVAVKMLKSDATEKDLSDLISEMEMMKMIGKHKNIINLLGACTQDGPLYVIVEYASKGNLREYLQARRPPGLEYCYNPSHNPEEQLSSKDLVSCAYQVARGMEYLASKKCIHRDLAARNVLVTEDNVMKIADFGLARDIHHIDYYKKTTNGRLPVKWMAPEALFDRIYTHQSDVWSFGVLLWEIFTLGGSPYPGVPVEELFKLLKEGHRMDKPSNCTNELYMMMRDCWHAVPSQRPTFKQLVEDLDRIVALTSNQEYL
The experiment can be described thus: FGF receptor tyrosine kinase assay. In kind it is biochemical. The note with it: for IC50: read-out: Inhibition of Protein Tyrosine Kinases, FGF, IC50. The essentials: as §1

The target in experiment [3] is T3, Human EGF receptor tyrosine kinase (Homo sapiens, UniProt P00533).
T3 construct: isolated from A431 epidermoid carcinoma cells; endogenous in cells; host or cells: A431 epidermoid carcinoma cells (Triton lysate, wheat germ agglutinin eluate)
In words: EGF receptor tyrosine kinase assay. The note with it: for inhibition at 50 µM: read-out: Inhibition of Protein Tyrosine Kinases, EGF, % Inhibition; for IC50: read-out: Inhibition of Protein Tyrosine Kinases, EGF, IC50. In kind it is biochemical. The protocol: Purification of Epidermal Growth Factor Receptor Tyrosine Kinase
Human EGF receptor tyrosine kinase was isolated from A431 epidermoid carcinoma cells by the following methods. Cells were grown in roller bottles in 50% Delbuco's Modified Eagle and 50% HAM F-12 nutrient media (Gibco) containing 10% fetal calf serum. Approximately 10^9 cells were lysed in two volumes of buffer containing 20 mM 2-(4N-[2-hydroxyethyl]piperazin-1-yl)ethanesulfonic acid, pH 7.4, 5 mM ethylene glycol bis(2-aminoethyl ether)N,N,N',N'-tetraacetic acid, 1% Triton X-100, 10% glycerol, 0.1 mM sodium orthovanadate, 5 mM sodium fluoride, 4 mM pyrophosphate, 4 mM benzamide, 1 mM dithiothreitol, 80 μg/mL aprotinin, 40 μg/mL leupeptin, and 1 mM phenylmethylsulfonyl fluoride. After centrifugation at 25,000×g for 10 minutes, the supernatant was equilibrated for 2 hours at 4° C. with 10 mL of wheat germ agglutinin sepharose that was previously equilibrated with 50 mM Hepes, 10% glycerol, 0.1% Triton X-100 and 150 mM NaCl, pH 7.5, (equilibration buffer). Contaminating proteins were washed from the resin with 1M NaCl in equilibration buffer, and the enzyme was eluted with 0.5M N-acetyl-1-D-glucosamine in equilibration buffer.
Determination of IC50 Values
The reaction was terminated by the addition of 2 mL of 75 mM phosphoric acid and passed through a 2.5-cm phosphocellulose filter disc to bind the peptide. The filter was washed five times with 75 mM phosphoric acid and placed in a vial along with 5 mL of scintillation fluid (Ready gel Beckman).

The target of another experiment is T4, C-src kinase (Homo sapiens, UniProt P12931).
T4 construct: made in house; host or cells: baculovirus-infected insect cells
In words: C-src kinase assay. As to conditions: for IC50: read-out: Inhibition of Protein Tyrosine Kinases, C-src, IC50; for inhibition at 50 µM: read-out: Inhibition of Protein Tyrosine Kinases, C-src, % Inhibition. In kind it is biochemical. The essentials:
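Baculovirus-expressed c-src immunopurified on antibody-coated latex beads, assayed in 40 mM Tris pH 7.5, 5 mM MgCl2 with poly GluTyr substrate and 5 μM ATP plus 32P-ATP. Reaction 10 min at room temperature, TCA-quenched, filtered; incorporated label counted by scintillation.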

Another experiment deals with V-src kinase. In words: V-src kinase assay. In kind it is biochemical. As to conditions: at 50 μM. The protocol: V-src and C-src Kinase Assays
V-src or C-src kinase is purified from baculovirus infected insect cell lysates using an antipeptide monoclonal antibody directed against the N-terminal 2-17 amino acids. The antibody, covalently linked to 0.65-μm latex beads, is added to a suspension of insect cell lysis buffer comprised of 150 mM NaCl, 50 mM Tris pH 7.5, 1 mM DTT, 1% NP-40, 2 mM EGTA, 1 mM sodium vanadate, 1 mM PMSF, 1 μg/mL each of leupeptin, pepstatin, and aprotinin. Insect cell lysate containing either the c-src or v-src protein is incubated with these beads for 3-4 hours at 4° C. with rotation. At the end of the lysate incubation, the beads are rinsed 3 times in lysis buffer, resuspended in lysis buffer containing 10% glycerol, and frozen. These latex beads are thawed, rinsed three times in assay buffer which is comprised of 40 mM tris pH 7.5, 5 mM MgCl2, and suspended in the same buffer. In a Millipore 96-well plate with a 0.65 μm polyvinylidine membrane bottom are added the reaction components: 10-μL v-src or c-src beads, 10 μL of 2.5 mg/mL poly GluTyr substrate, 5 μM ATP containing 0.2 μCi labeled ^32 P-ATP, 5μL DMSO containing inhibitors or as a solvent control, and buffer to make the final volume 125 μL. The reaction is started at room temperature by addition of the ATP and quenched 10 minutes later by the addition of 125 μL of 30% TCA, 0.1M sodium pyrophosphate for 5 minutes on ice. The plate is then filtered and the wells washed with two 250-μL aliquots of 15% TCA, 0.1M pyrophosphate. The filters are punched, counted in a liquid scintillation counter, and the data examined for inhibitory activity in comparison to a known inhibitor such as erbstatin. The method is described more fully in J. Med. Chem., 37:598-609 (1994).

Another experiment deals with PDGF receptor. In words: PDGF receptor autophosphorylation in RASMC. In kind it is cell-based, rat. The note with it: PDGF-BB 30 ng/mL, read-out: Inhibition of PDGF Stimulated Receptor Auto Phosphorylation (IC50).

T1 sequence (P05622 599-961 limits assumed): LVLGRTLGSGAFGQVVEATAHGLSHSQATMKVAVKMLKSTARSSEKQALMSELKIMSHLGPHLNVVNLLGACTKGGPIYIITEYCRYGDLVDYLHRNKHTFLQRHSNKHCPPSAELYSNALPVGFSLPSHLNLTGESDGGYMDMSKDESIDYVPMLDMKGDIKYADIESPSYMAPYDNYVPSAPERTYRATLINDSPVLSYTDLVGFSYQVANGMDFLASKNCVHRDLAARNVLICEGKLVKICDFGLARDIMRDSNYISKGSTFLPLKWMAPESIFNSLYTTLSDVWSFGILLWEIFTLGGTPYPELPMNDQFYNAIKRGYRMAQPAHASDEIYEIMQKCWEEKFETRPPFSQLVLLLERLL

A word on the IC50: it is the point on the concentration scale where inhibition reaches its midpoint. As usually defined, the inhibition is the drop in the measured response relative to a control, in per cent. As for `CC(C)(C)NC(=O)Nc1nc2nc(N)ncc2cc1-c1c(Br)cccc1Br` [Example 88, 1-[2-Amino-6-(2,6-dibromo-phenyl)-pyrido[2,3-d]pyrimidin-7-yl]-3-tert-butyl-urea], the IC50 in experiment [1] stood at 711 nM; in experiment [2], 148 nM; on C-src kinase it was 213 nM. The inhibition at 50 µM in experiment [3] (at 50 μM) was 34.4%.

Consider `CCN(CC)CCCNc1ncc2cc(-c3c(Cl)cccc3Cl)c(NC(=O)NC(C)(C)C)nc2n1` [Example 21, 1-tert-Butyl-3-[6-(2,6-dichlorophenyl)-2-(3-diethylamino-propylamino)-pyrido[2,3-d]pyrimidin-7-yl]-urea], for which the IC50 in experiment [1] amounted to 660 nM; in experiment [2], 82.4 nM; in experiment [3], 6970 nM; at C-src kinase, 73 nM; in the experiment on PDGF receptor, 1800 nM. Moreover, the “Inhibition of Protein Tyrosine Kinases, V-src, % Inhibition” value (“Inhibition … V-src, % Inhibition” below) with V-src kinase is listed as 49.4%.

With `CN(C)C=Nc1ncc2cc(-c3c(Cl)cccc3Cl)c(NC(=O)NC(C)(C)C)nc2n1` [Example 79, N'-[7-(3-tert-Butylureido)-6-(2,6-dichlorophenyl)-pyrido[2,3-d]pyrimidin-2-yl]-N,N-dimethylformamidine], the IC50 worked out at 17800 nM in experiment [1] and 8090 nM in experiment [2]. For the same molecule, the inhibition at 50 µM in experiment [3] (at 50 μM) turned out to be 60.9%.

Take `Cc1cccc(C)c1-c1cc2cnc(N)nc2nc1NC(=O)NC(C)(C)C` [Example 6, 1-[2-Amino-6-(2,6-dimethylphenyl)-pyrido[2,3-d]pyrimidin-7-yl]-3-tert-butylurea]: the IC50 was 397 nM in experiment [2], 457 nM in experiment [3] and 350 nM in the experiment on PDGF receptor. Further, the “Inhibition … V-src, % Inhibition” value with V-src kinase stood at 39.8%.

Consider “1-[2-Amino-6-(2,6-dichlorophenyl)-pyrido[2,3-d]pyrimidin-7-yl]-3-(3-morpholin-4-yl-propyl)-thiourea [Example 23]”, for which the IC50 in experiment [1] turned out to be 4510 nM; in experiment [2], 291 nM; on C-src kinase it was 613 nM. Moreover, the “Inhibition of Protein Tyrosine Kinases, EGF, % Inhibition” value in experiment [3] (at 50 μM) was determined as 104.8%. Further, the “Inhibition … V-src, % Inhibition” value in the experiment on V-src kinase amounted to 10.2%.

As for `Nc1cc2nc(N)c(-c3ccccc3Cl)cc2cn1` [Example 17, 3-(2-Chlorophenyl)-[1,6]naphthyridine-2,7-diamine], the IC50 in experiment [1] was found to be 27000 nM; in experiment [2] it was 4500 nM; in experiment [3] it was 7220 nM; on C-src kinase it was 2760 nM. The “Inhibition … V-src, % Inhibition” value in the experiment with V-src kinase is reported as 5.3%.

For `CCNC(=O)Nc1nc2nc(N)ncc2cc1-c1c(Cl)cccc1Cl` [Example 22, 1-[2-Amino-6-(2,6-dichlorophenyl)-pyrido[2,3-d]pyrimidin-7-yl]-3-ethylurea], the IC50 worked out at 1300 nM in experiment [1], 128 nM in experiment [2], 77 nM at C-src kinase and 3730 nM in the experiment with PDGF receptor. The inhibition at 50 µM in experiment [3] (at 50 μM) is 90.4%. Besides, in the experiment with V-src kinase, the “Inhibition … V-src, % Inhibition” value came out at 46.9%.

`Cc1ccccc1-c1cc2cnc(N)cc2nc1N` [Example 16, 3-o-Tolyl-[1,6]naphthyridine-2,7-diamine]: the concentration for half-maximal inhibition (IC50) in experiment [1] was 10700 nM; in experiment [2], 9210 nM; in experiment [3], 7080 nM; on C-src kinase it was 1380 nM. Besides, in the experiment with V-src kinase, the “Inhibition … V-src, % Inhibition” value was 10.3%.

For the molecule `CC(=O)Nc1ncc2cc(-c3c(Cl)cccc3Cl)c(NC(C)=O)nc2n1` [Example 7, N-[2-Acetylamino-6-(2,6-dichlorophenyl)-pyrido[2,3-d]pyrimidin-7-yl]-acetamide], the inhibition at 50 µM was determined as 33.5% in experiment [1] and 25.1% in experiment [3] (at 50 μM). Further, the half-inhibitory concentration (IC50) in experiment [2] was found to be 17900 nM; at C-src kinase, 2300 nM. Further, the “Inhibition … V-src, % Inhibition” value in the experiment with V-src kinase was 7.6%.

`Cc1ccccc1-c1cc2cnc(NC(=O)NC(C)(C)C)nc2nc1NC(=O)NC(C)(C)C` [Example 4, 1-tert-Butyl-3-[7-(3-tert-butylureido)-6-o-tolyl-pyrido[2,3-d]pyrimidin-2-yl]urea]: the inhibition at 50 µM in experiment [1] came out at 31.9%; in experiment [2] (at 50 μM, read-out: Inhibition of Protein Tyrosine Kinases, FGF, % Inhibition), 21.5%; in experiment [3] (at 50 μM), 36.6%; on C-src kinase, 33.6%. For the same molecule, the “Inhibition … V-src, % Inhibition” value in the experiment on V-src kinase is recorded as 3.1%.

In the case of `CCCCNC(=O)Nc1ncc2cc(-c3c(Cl)cccc3Cl)c(NC(=O)NCCCC)nc2n1` [Example 25, 1-Butyl-3-[7-(3-butyl-ureido)-6-(2,6-dichlorophenyl)-pyrido[2,3-d]pyrimidin-2-yl]-urea], the IC50 in experiment [1] was 6040 nM; in experiment [2], 11800 nM; on C-src kinase, 207 nM. Also, the inhibition at 50 µM in experiment [3] (at 50 μM) is 57.5%. In the experiment on V-src kinase, the “Inhibition … V-src, % Inhibition” value turned out to be 0.0%.

In the case of `CNc1ncc2cc(-c3ccccc3)c(NC)nc2n1` [Example 19, N^2,N^7 -Dimethyl-6-phenyl-pyrido[2,3-d]pyrimidine-2,7-diamine], the inhibition at 50 µM in experiment [1] worked out at 47.7%; in experiment [3] (at 50 μM) it was 26.1%; on C-src kinase it was 52.8%. In experiment [2], the IC50 was determined as 16900 nM. The “Inhibition … V-src, % Inhibition” value in the experiment with V-src kinase is 5.2%.

Take `Nc1ncc2cc(-c3c(Cl)cccc3Cl)c(NC3=NCCO3)nc2n1` [Example 24, 2-[2-Amino-6-(2,6-dichlorophenyl)-pyrido[2,3-d]pyrimidin-7-yl]-amino-4,5-dihydro-oxazole]: the IC50 in experiment [1] was found to be 11400 nM; in experiment [2], 7290 nM; at C-src kinase, 214 nM. For the same molecule, in experiment [3] (at 50 μM), the inhibition at 50 µM is 58.3%.

For `Cc1ccccc1-c1cc2cnc(N)nc2nc1NC(=O)NC(C)(C)C` [Example 5, 1-[2-Amino-6-o-tolyl-pyrido[2,3-d]pyrimidin-7-yl]-3-tert-butylurea], the IC50 stood at 466 nM in experiment [1], 1400 nM in experiment [2], 928 nM in experiment [3] and 407 nM on C-src kinase. Also, the “Inhibition … V-src, % Inhibition” value in the experiment with V-src kinase amounted to 23.3%.

Take `CC(C)(C)NC(=O)Nc1ncc2cc(-c3c(Cl)cccc3Cl)c(NC(=O)NC(C)(C)C)nc2n1` [Example 2, 1-tert-Butyl-3-[7-(3-tert-butylureido)-6-(2,6-dichlorophenyl)-pyrido[2,3-d]pyrimidin-2-yl]urea]: the IC50 in experiment [1] was 10200 nM; in experiment [2], 1600 nM; at C-src kinase it was 19500 nM. Moreover, in experiment [3] (at 50 μM), the inhibition at 50 µM is 52.3%.

These data come from patent US5733913A, “6-Aryl pyrido[2,3-d] pyrimidines and naphthyridines for inhibiting protein tyrosine kinase mediated cellular proliferation” (priority 1995, dated 1998).
